Numbered stars: 1 amine (or outer) side, 2 acyl side, 3 side chain; on linkers, the order of the positions; unused ones are H or OH. Square brackets hold non-standard residues; d marks the D form. Side chains are listed from the residue outwards. Peptide text beside a SMILES is read from it. * marks the point of attachment. C20 diacid = O=C(O)CCCCCCCCCCCCCCCCCCC(=O)*; C18 diacid = O=C(O)CCCCCCCCCCCCCCCCC(=O)*; αMePhe(2-F) = C[C@](N)(Cc1ccccc1F)C(=O)O; γGlu = O=C(O)[C@H](CCC(=O)[*:2])N[*:1]; αMeL = CC(C)C[C@](C)(N)C(=O)O; AEEA = NCCOCCOCC(=O)O; Aib = CC(C)(N)C(=O)O

In general, EC50 refers to the concentration that produces a half-maximal response.

The target of assay [1] is T1, gastric inhibitory peptide receptor (GIPR) (Homo sapiens, UniProt P48546).
T1 sequence (P48546 22-466): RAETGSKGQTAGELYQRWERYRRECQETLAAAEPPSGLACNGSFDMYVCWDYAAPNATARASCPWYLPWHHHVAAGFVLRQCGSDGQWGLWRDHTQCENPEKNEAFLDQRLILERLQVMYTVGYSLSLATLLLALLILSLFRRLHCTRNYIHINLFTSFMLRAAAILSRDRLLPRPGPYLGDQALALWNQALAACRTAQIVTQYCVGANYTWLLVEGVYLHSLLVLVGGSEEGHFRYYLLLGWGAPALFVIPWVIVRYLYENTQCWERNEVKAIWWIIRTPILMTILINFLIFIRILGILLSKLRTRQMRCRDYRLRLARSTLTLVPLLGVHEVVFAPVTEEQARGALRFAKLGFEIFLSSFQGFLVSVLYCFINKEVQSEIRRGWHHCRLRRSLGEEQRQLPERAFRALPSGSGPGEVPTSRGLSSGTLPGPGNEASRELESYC
The assay is described as follows: cAMP pharmacological functional assay in presence of casein, hGIPR. Format: cell-based. The conditions noted are these: HEK293 cells expressing hGIPR, 0.1% Casein, geometric mean; read-out: hGIPR cAMP Rel EC50 nM (SEM, n).

Assay [2] addresses human GLP-1 receptor (GLP-1R) (Homo sapiens, UniProt P43220). The assay is described as follows: cAMP pharmacological functional assay in presence of casein, hGLP-1R. Format: cell-based. The conditions noted are these: HEK293 cells expressing hGLP-1R, 0.1% Casein, geometric mean; read-out: hGLP1R cAMP Rel EC50 nM (SEM, n).

Chain of human GLP-1 receptor (GLP-1R) (P43220 24-463): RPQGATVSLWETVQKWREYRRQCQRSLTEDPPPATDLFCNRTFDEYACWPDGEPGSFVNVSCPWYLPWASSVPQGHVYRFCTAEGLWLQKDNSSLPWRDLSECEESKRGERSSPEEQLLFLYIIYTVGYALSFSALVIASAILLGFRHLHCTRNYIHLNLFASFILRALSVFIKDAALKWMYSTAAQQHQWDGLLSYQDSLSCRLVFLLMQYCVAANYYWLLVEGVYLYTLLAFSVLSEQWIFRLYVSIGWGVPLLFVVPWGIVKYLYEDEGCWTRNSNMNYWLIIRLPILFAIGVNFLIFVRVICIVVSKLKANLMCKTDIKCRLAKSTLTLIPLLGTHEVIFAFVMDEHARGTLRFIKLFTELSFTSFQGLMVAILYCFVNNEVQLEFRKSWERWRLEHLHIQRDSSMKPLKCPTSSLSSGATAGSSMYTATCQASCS

Take `CC[C@H](C)[C@H](NC(=O)[C@H](CC(C)C)NC(=O)[C@H](Cc1ccc(O)cc1)NC(=O)[C@@H](CCC(=O)O)NC(=O)[C@@H](NC(=O)[C@H](Cc1ccccc1)NC(=O)[C@@H](NC(=O)C(C)(C)NC(=O)[C@H](CCC(N)=O)NC(=O)[C@H](C)NC(=O)[C@H](CCCCNC(=O)COCCOCCNC(=O)COCCOCCNC(=O)[C@@H](N)CCCCNC(=O)CCCCCCCCCCCCCCCCCCC(=O)O)NC(=O)[C@H](CCC(=O)O)NC(=O)[C@H](CC(=O)O)NC(=O)[C@H](CC(C)C)NC(=O)C(C)(CC(C)C)NC(=O)[C@@H](NC(=O)[C@H](CO)NC(=O)[C@H](Cc1c[nH]cn1)NC(=O)[C@H](CC(=O)O)NC(=O)[C@H](CO)NC(=O)[C@@H](NC(=O)C(C)(Cc1ccccc1F)NC(=O)[C@@H](NC(=O)CNC(=O)[C@H](CCC(=O)O)NC(=O)C(C)(C)NC(=O)[C@@H](N)Cc1ccc(O)cc1)[C@@H](C)O)[C@@H](C)O)[C@@H](C)CC)[C@@H](C)O)[C@@H](C)CC)C(=O)N[C@@H](CCC(=O)O)C(=O)NCC(=O)NCC(=O)N1CCC[C@H]1C(=O)N[C@@H](CO)C(=O)N[C@@H](CO)C(=O)NCC(=O)N[C@@H](C)C(=O)N1CCC[C@H]1C(=O)N1CCC[C@H]1C(=O)N1CCC[C@H]1C(=O)N[C@@H](CO)C(N)=O` (some centres unmarked) [Example 175]: the EC50 in assay [1] is 0.0881 nM; in assay [2], 1.11 nM.
In the case of `CC[C@H](C)[C@H](NC(=O)[C@H](CCCCN)NC(=O)[C@H](CC(=O)O)NC(=O)[C@H](CC(C)C)NC(=O)[C@H](CC(C)C)NC(=O)[C@@H](NC(=O)[C@H](CO)NC(=O)[C@H](Cc1ccc(O)cc1)NC(=O)[C@H](CC(=O)O)NC(=O)[C@H](CO)NC(=O)[C@@H](NC(=O)[C@H](Cc1ccccc1)NC(=O)[C@@H](NC(=O)CNC(=O)[C@H](CCC(=O)O)NC(=O)C(C)(C)NC(=O)[C@@H](N)Cc1ccc(O)cc1)[C@@H](C)O)[C@@H](C)O)[C@@H](C)CC)C(=O)N[C@@H](C)C(=O)N[C@@H](CCC(N)=O)C(=O)NC(C)(C)C(=O)N[C@@H](CCCCNC(=O)COCCOCCNC(=O)COCCOCCNC(=O)CC[C@H](NC(=O)CCCCCCCCCCCCCCCCCCC(=O)O)C(=O)O)C(=O)N[C@@H](Cc1ccccc1)C(=O)N[C@H](C(=O)N[C@@H](CCC(=O)O)C(=O)N[C@@H](Cc1ccc(O)cc1)C(=O)N[C@@H](CC(C)C)C(=O)N[C@H](C(=O)N[C@@H](CCC(=O)O)C(=O)NCC(=O)NCC(N)=O)[C@@H](C)CC)[C@@H](C)CC` [Example 72] (H-Y[Aib]EGTFTSDYSILLDKIAQ[Aib]K([AEEA-AEEA-γGlu-C20 diacid])FIEYLIEGG-NH2), the EC50 in assay [1] came to 0.252 nM; in assay [2], 0.906 nM.
Take `CC[C@H](C)[C@H](NC(=O)[C@H](CCCCN)NC(=O)[C@H](CC(=O)O)NC(=O)[C@H](CC(C)C)NC(=O)[C@H](CC(C)C)NC(=O)[C@@H](NC(=O)[C@H](CO)NC(=O)[C@H](CCCCNC(=O)COCCOCCNC(=O)COCCOCCNC(=O)CC[C@H](NC(=O)CCCCCCCCCCCCCCCCCCC(=O)O)C(=O)O)NC(=O)[C@H](CC(=O)O)NC(=O)[C@H](CO)NC(=O)[C@@H](NC(=O)[C@H](Cc1ccccc1)NC(=O)[C@@H](NC(=O)CNC(=O)[C@H](CCC(=O)O)NC(=O)C(C)(C)NC(=O)[C@@H](N)Cc1ccc(O)cc1)[C@@H](C)O)[C@@H](C)O)[C@@H](C)CC)C(=O)N[C@@H](C)C(=O)N[C@@H](CCC(N)=O)C(=O)NC(C)(C)C(=O)N[C@@H](C)C(=O)N[C@@H](Cc1ccccc1)C(=O)N[C@H](C(=O)N[C@@H](CCC(=O)O)C(=O)N[C@@H](Cc1ccc(O)cc1)C(=O)N[C@@H](CC(C)C)C(=O)N[C@H](C(=O)N[C@@H](CCC(=O)O)C(=O)NCC(=O)NCC(N)=O)[C@@H](C)CC)[C@@H](C)CC` [Example 70] (H-Y[Aib]EGTFTSDK([AEEA-AEEA-γGlu-C20 diacid])SILLDKIAQ[Aib]AFIEYLIEGG-NH2; N-terminus assumed): the EC50 in assay [1] came out at 0.48 nM; in assay [2], 0.283 nM.
On to `CC[C@H](C)[C@H](NC(=O)[C@H](CC(C)C)NC(=O)[C@H](Cc1ccc(O)cc1)NC(=O)[C@H](CCC(=O)O)NC(=O)[C@@H](NC(=O)[C@H](Cc1ccccc1)NC(=O)[C@H](C)NC(=O)[C@@H]1CCCN1C(=O)[C@H](CCC(N)=O)NC(=O)[C@H](C)NC(=O)[C@H](CCCCNC(=O)COCCOCCNC(=O)COCCOCCNC(=O)CC[C@H](NC(=O)CCCCCCCCCCCCCCCCC(=O)O)C(=O)O)NC(=O)[C@H](CCCCN)NC(=O)[C@H](CC(=O)O)NC(=O)[C@H](CC(C)C)NC(=O)[C@H](CC(C)C)NC(=O)[C@@H](NC(=O)[C@H](CO)NC(=O)[C@H](Cc1ccc(O)cc1)NC(=O)[C@H](CC(=O)O)NC(=O)[C@H](CO)NC(=O)[C@@H](NC(=O)[C@H](Cc1ccccc1)NC(=O)[C@@H](NC(=O)CNC(=O)[C@H](CCC(=O)O)NC(=O)C(C)(C)NC(=O)[C@@H](N)Cc1ccc(O)cc1)[C@@H](C)O)[C@@H](C)O)[C@@H](C)CC)[C@@H](C)CC)C(=O)N[C@@H](CCC(=O)O)C(=O)NCC(=O)NCC(N)=O` [Example 275] (H-Y[Aib]EGTFTSDYSILLDKK([AEEA-AEEA-γGlu-C18 diacid])AQPAFIEYLIEGG-NH2), for which the EC50 in assay [1] was more than 30 nM; in assay [2] it was 14 nM.
The matching figures for `CC[C@H](C)[C@H](NC(=O)[C@H](CC(C)C)NC(=O)[C@H](Cc1ccc(O)cc1)NC(=O)[C@@H](CCC(=O)O)NC(=O)[C@@H](NC(=O)[C@H](Cc1ccccc1)NC(=O)[C@H](CCC(=O)O)NC(=O)C(C)(C)NC(=O)[C@H](CCC(N)=O)NC(=O)[C@H](C)NC(=O)[C@H](CCCCNC(=O)COCCOCCNC(=O)COCCOCCNC(=O)CC[C@H](NC(=O)CCCCCCCCCCCCCCCCCCC(=O)O)C(=O)O)NC(=O)[C@H](CCC(=O)O)NC(=O)[C@H](CC(=O)O)NC(=O)[C@H](CC(C)C)NC(=O)[C@](C)(CC(C)C)NC(=O)[C@@H](NC(=O)[C@H](CO)NC(=O)[C@H](CCC(N)=O)NC(=O)[C@H](CC(=O)O)NC(=O)[C@H](CO)NC(=O)[C@@H](NC(=O)[C@](C)(Cc1ccccc1F)NC(=O)[C@@H](NC(=O)CNC(=O)[C@H](CCC(=O)O)NC(=O)C(C)(C)NC(=O)[C@@H](N)Cc1ccc(O)cc1)[C@@H](C)O)[C@@H](C)O)[C@@H](C)CC)[C@@H](C)CC)C(=O)N[C@@H](CCC(=O)O)C(=O)NCC(=O)NCC(=O)N1CCC[C@H]1C(=O)N[C@@H](CO)C(=O)N[C@@H](CO)C(=O)NCC(=O)N[C@@H](C)C(=O)N1CCC[C@H]1C(=O)N1CCC[C@H]1C(=O)N1CCC[C@H]1C(=O)N[C@@H](CO)C(N)=O` [Example 187] (H-Y[Aib]EGT[αMePhe(2-F)]TSDQSI[αMeL]LDEK([AEEA-AEEA-γGlu-C20 diacid])AQ[Aib]EFI[dE]YLIEGGPSSGAPPPS-NH2): 0.0371 nM and 0.0577 nM.
For the compound `CC[C@H](C)[C@H](NC(=O)[C@H](CC(C)C)NC(=O)[C@H](Cc1ccc(O)cc1)NC(=O)[C@H](CCC(=O)O)NC(=O)[C@@H](NC(=O)[C@H](Cc1ccccc1)NC(=O)[C@H](C)NC(=O)[C@H](CCCNC(=N)N)NC(=O)[C@H](CCC(N)=O)NC(=O)[C@H](C)NC(=O)[C@H](CCCCNC(=O)COCCOCCNC(=O)COCCOCCNC(=O)CC[C@H](NC(=O)CCCCCCCCCCCCCCCCCCC(=O)O)C(=O)O)NC(=O)[C@H](CCCCN)NC(=O)[C@H](CC(=O)O)NC(=O)[C@H](CC(C)C)NC(=O)[C@H](CC(C)C)NC(=O)[C@@H](NC(=O)[C@H](CO)NC(=O)[C@H](Cc1ccc(O)cc1)NC(=O)[C@H](CC(=O)O)NC(=O)[C@H](CO)NC(=O)[C@@H](NC(=O)[C@H](Cc1ccccc1)NC(=O)[C@@H](NC(=O)CNC(=O)[C@H](CCC(=O)O)NC(=O)C(C)(C)NC(=O)[C@@H](N)Cc1ccc(O)cc1)[C@@H](C)O)[C@@H](C)O)[C@@H](C)CC)[C@@H](C)CC)C(=O)N[C@@H](CCC(=O)O)C(=O)NCC(=O)NCC(=O)N1CCC[C@H]1C(=O)N[C@@H](CO)C(=O)N[C@@H](CO)C(=O)NCC(=O)N[C@@H](C)C(=O)N1CCC[C@H]1C(=O)N1CCC[C@H]1C(=O)N1CCC[C@H]1C(=O)N[C@@H](CO)C(N)=O` [Example 257] (H-Y[Aib]EGTFTSDYSILLDKK([AEEA-AEEA-γGlu-C20 diacid])AQRAFIEYLIEGGPSSGAPPPS-NH2; N-terminus assumed), the EC50 in assay [1] was 0.474 nM; in assay [2], 0.0779 nM.
On to `CC[C@H](C)[C@H](NC(=O)[C@H](CC(C)C)NC(=O)[C@H](Cc1ccc(O)cc1)NC(=O)[C@@H](CCC(=O)O)NC(=O)[C@@H](NC(=O)[C@H](Cc1ccccc1)NC(=O)[C@H](CCC(=O)O)NC(=O)C(C)(C)NC(=O)[C@H](CCC(N)=O)NC(=O)[C@H](C)NC(=O)[C@H](CCC(N)=O)NC(=O)[C@H](CCC(=O)O)NC(=O)[C@H](CC(=O)O)NC(=O)[C@H](CC(C)C)NC(=O)[C@](C)(CC(C)C)NC(=O)[C@@H](NC(=O)[C@H](CO)NC(=O)[C@H](Cc1ccc(O)cc1)NC(=O)[C@H](CC(=O)O)NC(=O)[C@H](CO)NC(=O)[C@@H](NC(=O)[C@](C)(Cc1ccccc1F)NC(=O)[C@@H](NC(=O)CNC(=O)[C@H](CCC(=O)O)NC(=O)C(C)(C)NC(=O)[C@@H](N)Cc1ccc(O)cc1)[C@@H](C)O)[C@@H](C)O)[C@@H](C)CC)[C@@H](C)CC)C(=O)N[C@@H](CCC(=O)O)C(=O)NCC(=O)NCC(=O)N1CCC[C@H]1C(=O)N[C@@H](CO)C(=O)N[C@@H](CO)C(=O)NCC(=O)N[C@@H](C)C(=O)N1CCC[C@H]1C(=O)N1CCC[C@H]1C(=O)N1CCC[C@H]1C(=O)N[C@@H](CO)C(=O)N[C@@H](CS)C(N)=O` [Example 279] (H-Y[Aib]EGT[αMePhe(2-F)]TSDYSI[αMeL]LDEQAQ[Aib]EFI[dE]YLIEGGPSSGAPPPSC-NH2), for which the EC50 in assay [1] is 0.564 nM; in assay [2] it was 0.11 nM.

The values are drawn from patent US12252524B2, “GIP/GLP1 co-agonist compounds” (Eli Lilly and Company, priority 2018, dated 2025).
